In US12156880B2, “Heterocyclic RIP1 kinase inhibitors” (Rigel Pharmaceuticals, Inc., priority 2021, dated 2024) one finds IC50 data, which are given here for 18 compounds.

Each structure is given as a SMILES string.

Assay [1] concerns the target T1, RIPK1 (Homo sapiens, UniProt Q13546).
T1 sequence (Q13546 1-671): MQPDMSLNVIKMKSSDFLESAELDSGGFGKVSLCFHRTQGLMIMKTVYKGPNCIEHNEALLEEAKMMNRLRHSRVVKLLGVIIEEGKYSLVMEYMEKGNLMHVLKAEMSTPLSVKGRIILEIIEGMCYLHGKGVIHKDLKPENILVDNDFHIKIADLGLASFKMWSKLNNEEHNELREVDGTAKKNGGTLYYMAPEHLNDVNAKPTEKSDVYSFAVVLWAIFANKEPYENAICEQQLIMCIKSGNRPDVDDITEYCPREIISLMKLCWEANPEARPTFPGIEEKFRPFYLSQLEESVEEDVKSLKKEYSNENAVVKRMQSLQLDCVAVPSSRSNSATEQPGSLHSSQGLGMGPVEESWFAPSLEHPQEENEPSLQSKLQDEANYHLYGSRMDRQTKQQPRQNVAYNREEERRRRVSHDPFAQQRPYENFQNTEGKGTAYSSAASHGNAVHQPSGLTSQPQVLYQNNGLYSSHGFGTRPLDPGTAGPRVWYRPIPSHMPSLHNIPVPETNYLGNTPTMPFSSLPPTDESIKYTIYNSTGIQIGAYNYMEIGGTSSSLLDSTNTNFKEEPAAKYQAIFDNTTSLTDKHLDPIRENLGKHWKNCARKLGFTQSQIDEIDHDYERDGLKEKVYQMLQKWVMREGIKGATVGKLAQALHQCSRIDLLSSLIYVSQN
As to the kind of experiment: RIPK1 ADP-Glo biochemical kinase assay. The settings on record: read-out: RIPK1 ADP-Glo Kinase (IC50). The procedure, abridged: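 RIPK1 at 31 ng/well in Tris pH 7.4 buffer with MgCl2, BSA, DTT and MnCl2, reacted with compounds (duplicate) for 30 min at 30 °C. ADP formed detected by ADP-Glo: 40 min stop/depletion, then 30 min detection reagent at room temperature; luminescence read.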

Assay [2] relates to L929 cells. As to the kind of experiment: L929 cell necroptosis assay (TNFa + zVAD, CellTiter-Glo recovery). The class given is cell-based, murine. As to conditions: Mus musculus, L929, 18 h, TNFa 2 ng/mL + zVAD-fmk, read-out: L929-CTG-recovery, L929, TNFa + zVAD (IC50). An outline of the steps: (§1)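 Human U937 (50K/well, 60 uM zVAD-fmk medium, plated same day) or murine L929 (10K/well, plated 18 h, then 40 uM zVAD-fmk medium) were grown in RPMI with 10% FBS. Both were pretreated with compound for 1 h at 37 °C before TNFa at 2 ng/mL final. Viability was read by CellTiter-Glo luminescence after 18 h.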

In assay [3] the test system is U937 cells. As to the kind of experiment: U937 cell necroptosis assay (TNFa + zVAD, CellTiter-Glo recovery). The class given is cell-based. The settings on record: Homo sapiens, U-937, 18 h, TNFa 2 ng/mL + zVAD-fmk, read-out: U937 Zvad TNF CTG Recovery, U937, TNFa + zVAD (IC50). The procedure, abridged:
as §1
For orientation: In ATP-based viability assays light output follows the ATP content of the culture.

One may read the IC50 as the midpoint of a concentration-inhibition curve. As to `CN1C(=O)[C@@H](NC(=O)c2cc(Oc3cccnc3)ccn2)COc2ccc(C#CC(C)(C)O)cc21` [I-58, (S)—N-(7-(3-hydroxy-3-methylbut-1-yn-1-yl)-5-methyl-4-oxo-2,3,4,5-tetrahydrobenzo[b][1,4]oxazepin-3-yl)-4-(pyridin-3-yloxy)picolinamide], the values for the IC50 in assay [1], in assay [2] and in assay [3] were 20.2 nM, 1180 nM and 3.8 nM, respectively.
Consider `CN1C(=O)[C@@H](NC(=O)n2cc(Cc3cccc(F)n3)cn2)COc2ccc(C#CC(C)(C)O)cc21` [I-1, (S)-4-((6-Fluoropyridin-2-yl)methyl)-N-(7-(3-hydroxy-3-methylbut-1-yn-1-yl)-5-methyl-4-oxo-2,3,4,5-tetrahydrobenzo[b][1,4]oxazepin-3-yl)-1H-pyrazole-1-carboxamide], for which the IC50 in assay [1] came out at 20.6 nM; in assay [2] it was 2300 nM; in assay [3] it was 11.4 nM.
For the compound `CN1C(=O)[C@@H](NC(=O)c2cc(Oc3cncc(F)c3)ccn2)COc2ccc(C#CC3(O)CCC3)cc21` [I-100, (S)-4-((5-fluoropyridin-3-yl)oxy)-N-(7-((1-hydroxycyclobutyl)ethynyl)-5-methyl-4-oxo-2,3,4,5-tetrahydrobenzo[b][1,4]oxazepin-3-yl)picolinamide], the IC50 in assay [1] was found to be 28 nM; in assay [2] it was 1100 nM; in assay [3], 4.1 nM.
For `Cc1cccc(Cc2cnn(C(=O)N[C@H]3CCc4ccc(C#CC(C)(C)O)cc4N(C)C3=O)c2)n1` [I-119, (S)—N-(8-(3-Hydroxy-3-methylbut-1-yn-1-yl)-1-methyl-2-oxo-2,3,4,5-tetrahydro-1H-benzo[b]azepin-3-yl)-4-((6-methylpyridin-2-yl)methyl)-1H-pyrazole-1-carboxamide], in that order: 17.1 nM, 407 nM and 16.6 nM.
Consider `CN1C(=O)[C@@H](NC(=O)c2cc(Oc3cccnc3C#N)ccn2)COc2ccc(C#CC3(O)COC3)cc21` [I-92, (S)-4-((2-cyanopyridin-3-yl)oxy)-N-(7-((3-hydroxyoxetan-3-yl)ethynyl)-5-methyl-4-oxo-2,3,4,5-tetrahydrobenzo[b][1,4]oxazepin-3-yl)picolinamide], for which the IC50 stood at 20.8 nM in assay [1], 7870 nM in assay [2] and 158 nM in assay [3].
For `CN1C(=O)[C@@H](NC(=O)n2cc(Cc3cccc(F)n3)cn2)CCc2c(F)cc(C#CC(C)(C)O)cc21` [I-121, (S)—N-(6-Fluoro-8-(3-hydroxy-3-methylbut-1-yn-1-yl)-1-methyl-2-oxo-2,3,4,5-tetrahydro-1H-benzo[b]azepin-3-yl)-4-((6-fluoropyridin-2-yl)methyl)-1H-pyrazole-1-carboxamide], in that order: 26.1 nM, 11000 nM and 174 nM.
Turning to `CN1C(=O)[C@@H](NC(=O)c2cc(Oc3cccnc3F)ccn2)COc2ccc(C#CC3(O)CCC3)cc21` [I-83, (S)-4-((2-fluoropyridin-3-yl)oxy)-N-(7-((1-hydroxycyclobutyl)ethynyl)-5-methyl-4-oxo-2,3,4,5-tetrahydrobenzo[b][1,4]oxazepin-3-yl)picolinamide], the 50% inhibitory concentration (IC50) in assay [1] came to 19.1 nM; in assay [2], 218 nM; in assay [3] it was 1.4 nM.
For the compound `CN1C(=O)[C@@H](NC(=O)c2cc(Cc3cccnc3)ccn2)COc2ccc(C#CC3(O)COC3)cc21` [I-62, (S)—N-(7-((3-hydroxyoxetan-3-yl)ethynyl)-5-methyl-4-oxo-2,3,4,5-tetrahydrobenzo[b][1,4]oxazepin-3-yl)-4-(pyridin-3-ylmethyl)picolinamide], the IC50 stood at 21.5 nM in assay [1], 1370 nM in assay [2] and 10.9 nM in assay [3].
In the same order, the values of `CN1C(=O)[C@@H](NC(=O)c2cc(Oc3cncc(F)c3)ccn2)COc2ccc(C#CC(C)(C)C)cc21` [I-101, (S)—N-(7-(3,3-dimethylbut-1-yn-1-yl)-5-methyl-4-oxo-2,3,4,5-tetrahydrobenzo[b][1,4]oxazepin-3-yl)-4-((5-fluoropyridin-3-yl)oxy)picolinamide] are 55.2 nM, 1580 nM and 9.1 nM.
Turning to `CN1C(=O)[C@@H](NC(=O)c2cc(Oc3cncc(F)c3)ccn2)COc2ccc(C#CC(C)(C)O)cc21` [I-60, (S)-4-((5-fluoropyridin-3-yl)oxy)-N-(7-(3-hydroxy-3-methylbut-1-yn-1-yl)-5-methyl-4-oxo-2,3,4,5-tetrahydrobenzo[b][1,4]oxazepin-3-yl)picolinamide], the IC50 in assay [1] amounted to 12.8 nM; in assay [2], 4590 nM; in assay [3], 12.1 nM.
In the same order, the values of `Cc1cccc(Cc2cnn(C(=O)N[C@H]3COc4ccc(C#CC5COC5)cc4N(C)C3=O)c2)n1` [I-109, (S)—N-(5-Methyl-7-(oxetan-3-ylethynyl)-4-oxo-2,3,4,5-tetrahydrobenzo[b][1,4]oxazepin-3-yl)-4-((6-methylpyridin-2-yl)methyl)-1H-pyrazole-1-carboxamide] are 26.3 nM, 3510 nM and 188 nM.
In the same order, the values of `Cc1cccc(Oc2ccnc(C(=O)N[C@H]3COc4ccc(C#CC(C)(C)O)cc4N(C)C3=O)c2)n1` [I-130, (S)—N-(7-(3-hydroxy-3-methylbut-1-yn-1-yl)-5-methyl-4-oxo-2,3,4,5-tetrahydrobenzo[b][1,4]oxazepin-3-yl)-4-((6-methylpyridin-2-yl)oxy)picolinamide] are 33.4 nM, 5040 nM and 311 nM.
For `CN1C(=O)[C@@H](NC(=O)c2cc(Oc3cccnc3F)ccn2)COc2ccc(C#CC3(O)COC3)cc21` [I-56, (S)-4-((2-fluoropyridin-3-yl)oxy)-N-(7-((3-hydroxyoxetan-3-yl)ethynyl)-5-methyl-4-oxo-2,3,4,5-tetrahydrobenzo[b][1,4]oxazepin-3-yl)picolinamide], in that order: 10.5 nM, 275 nM and 2.9 nM.
For `CN1C(=O)[C@@H](NC(=O)n2cc(Cc3cccnc3F)cn2)COc2ccc(C#CC(C)(C)CO)cc21` [I-46, (S)-4-((2-Fluoropyridin-3-yl)methyl)-N-(7-(4-hydroxy-3,3-dimethylbut-1-yn-1-yl)-5-methyl-4-oxo-2,3,4,5-tetrahydrobenzo[b][1,4]oxazepin-3-yl)-1H-pyrazole-1-carboxamide], the values for the IC50 in assay [1], in assay [2] and in assay [3] were 37.5 nM, 2370 nM and 9.7 nM, respectively.
As to `CN1C(=O)[C@@H](NC(=O)n2cc(Cc3cccc(F)n3)cn2)COc2ccc(C#CC(O)C(F)(F)F)cc21` (mixture of isomers) [I-105, (±)-4-((6-Fluoropyridin-2-yl)methyl)-N-((3S)-5-methyl-4-oxo-7-(4,4,4-trifluoro-3-hydroxybut-1-yn-1-yl)-2,3,4,5-tetrahydrobenzo[b][1,4]oxazepin-3-yl)-1H-pyrazole-1-carboxamide], the concentration for half-maximal inhibition (IC50) in assay [1] came out at 16.8 nM; in assay [2] it was 1540 nM; in assay [3], 8.6 nM.
In the same order, the values of `CN1C(=O)[C@@H](NC(=O)n2cc(Cc3cccnc3F)cn2)COc2ccc(C#CC(C)(C)O)cc21` [I-43, (S)-4-((2-Fluoropyridin-3-yl)methyl)-N-(7-(3-hydroxy-3-methylbut-1-yn-1-yl)-5-methyl-4-oxo-2,3,4,5-tetrahydrobenzo[b][1,4]oxazepin-3-yl)-1H-pyrazole-1-carboxamide] are 17.7 nM, 2520 nM and 17.9 nM.
In the same order, the values of `CN1C(=O)[C@@H](NC(=O)c2cc(Oc3cnn(C)c3)ccn2)COc2ccc(C#CC(C)(C)O)cc21` [I-126, (S)—N-(7-(3-hydroxy-3-methylbut-1-yn-1-yl)-5-methyl-4-oxo-2,3,4,5-tetrahydrobenzo[b][1,4]oxazepin-3-yl)-4-((1-methyl-1H-pyrazol-4-yl)oxy)picolinamide] are 15.3 nM, 155 nM and 8.9 nM.
In the case of `CN1C(=O)[C@@H](NC(=O)c2cc(Cc3csc(C(F)(F)F)n3)ccn2)COc2ccc(C#CC(C)(C)O)cc21` [I-123, (S)—N-(7-(3-hydroxy-3-methylbut-1-yn-1-yl)-5-methyl-4-oxo-2,3,4,5-tetrahydrobenzo[b][1,4]oxazepin-3-yl)-4-((2-(trifluoromethyl)thiazol-4-yl)methyl)picolinamide], the 50% inhibitory concentration (IC50) amounted to 20 nM in assay [1], 853 nM in assay [2] and 97.8 nM in assay [3].
